This is an account of results in patent US20210073352A9, “SYSTEM AND METHOD FOR DRUG TARGET AND BIOMARKER DISCOVERY AND DIAGNOSIS USING A MULTIDIMENSIONAL MULTISCALE MODULE MAP” (Data4Cure, Inc., priority 2015, published 2021).

Entries after “also recorded” stand apart in the source; their conditions may differ.

In the test the test system is 504 cancer cell lines. The experiment in a line: Drug sensitivity (IC50 index) of cancer cell lines with versus without a mutation in a module, compared by T-test. The format is cell-based. The following applies: for T-Statistic, sensitivity to drug vs mutation in module: T-test of IC50 scores, cell lines with vs without mutation. The text has this:
An inference engine can be used to identify an association between drug sensitivity of a sample and module activity or mutation status. For example, by using a statistical test to compare the IC 50 indexes or other measures of drug sensitivity known to those skilled in the art, for two or more classes of samples determined by the presence or absence of a mutation within a module of interest or determined by a module feature (e.g. high or low activity). A statistical test, such as, for example, a T-test or Wilcoxon test or another test known to those skilled in the art can be used to compare the IC50 scores across two sets of samples. By way of example and not of limitation, an ANOVA analysis can be used to compare such scores over two or more classes of samples.
Change in drug sensitivity conditional on sample class determined by module activity or mutation status can be computed, for example, by using a statistical test by comparing, for example, the IC 50 indexes or other measures of drug sensitivity known to those skilled in the art, for two or more classes of samples. A statistical test, such as, for example, a T-test or Wilcoxon test or another test known to those skilled in the art can be used to compare the IC50 scores across two sets of samples. By way of example and not of limitation, an ANOVA analysis can be used to compare such scores over two or more classes of samples.
The Broad GDAC Firehose provides publicly-available preprocessed TCGA level 3 data and level 4 analyses packaged in a form amenable to immediate algorithmic intake (Marx, V. et al. Nat. Methods 10, 293-297 (2013); incorporated by reference in its entirety). From this resource gene mutations were obtained, copy-number variants and mRNA expression levels (microarray and RNAseq) for human subjects as well as selected clinical data such as overall patient survival and the list of administered oncology drugs for each patient were also obtained. Molecular data (including somatic mutations) as well as drug sensitivity data for 504 cancer cell lines were obtained, deposited and made publicly available by the Sage Bionetworks Synapse platform (Friend, S. et al. Cancer Discov. 2, 658 (2012); hereby incorporated by reference in its entirety).
A multidimensional multiscale map was generated where module colors indicate the change in drug sensitivity depending on the mutation status of a given module (i.e. module can contain a mutation in one of the genes or not) [FIG. 11]. The change is computed by comparing drug sensitivity for samples with or without mutations within genes belonging to a module. Drug sensitivity was measured by the IC 50 index (Soothill, J. S. et al. J. Antimicrob. Chemother. 29, 137-139 (1992); hereby incorporated by reference in its entirety). A T-test was used to compare the IC50 scores across two sets of samples. […] Cell lines with a relevant mutation are indicated as “1” in the boxplot and tend to have lower IC 50 values indicating higher sensitivity to AZD6244.

[1] abbreviates: mutations in genes of module 16157.
The mark [2] stands for this setting: mutations in genes of module 16873.
Setting [3] is: mutations in genes of module 17552.
The mark [4] stands for this setting: mutations in genes of module 17611.

On to `O=C(NOC[C@H](O)CO)c1ccc(F)c(F)c1Nc1ccc(I)cc1F` [PD.0325901], for which the “T-Statistic, sensitivity to drug vs mutation in module” value (shortened to “T-Statistic … vs mutation in module”) by setting is: (mutation in module 16157) −6.692; (mutation in module 16873) −10.52; (mutation in module 17552) −8.774; (mutation in module 17611) −7.111. Further, the “change in drug sensitivity with module mutation” value is, setting by setting: under setting [1], “more sensitive”; under setting [2], “more sensitive”; under setting [3], “more sensitive”; under setting [4], “more sensitive”.
With `Cn1cnc2c(F)c(Nc3ccc(Br)cc3Cl)c(C(=O)NOCCO)cc21` [AZD6244], the “change in drug sensitivity with module mutation” value was “increased sensitivity” (module number 17454 as printed, FIG. 11); “more sensitive” under setting [1]; “more sensitive” under setting [2]; “increased sensitivity; also recorded: more sensitive” under setting [3]; “more sensitive” under setting [4]. In addition, the “T-Statistic … vs mutation in module” value (mutation in module 16157) was −6.876; the “T-Statistic … vs mutation in module” value (mutation in module 16873) is reported as −9.937; the “T-Statistic … vs mutation in module” value (mutation in module 17552) is −8.56; the “T-Statistic … vs mutation in module” value (mutation in module 17611) is on record as −7.071.
